Test results taken from publication PMC4579271, “Inflammatory Signaling by NOD-RIPK2 Is Inhibited by Clinically Relevant Type II Kinase Inhibitors” (Chemistry & Biology, 2015).

Assays:
[1] = tested on: NF-κB activation in HEKBlue cells expressing NOD2; assay: HEKBlue NF-κB-SEAP reporter activation assay, L18-MDP stimulation; conditions: Homo sapiens, HEK-Blue, 8 h, read-out: NFκB activity EC50
[2] = tested on: NOD2-dependent TNF production in primary human monocytes; assay: Flow cytometry of intracellular TNF in primary human monocytes, L18-MDP; type: cell-based
Experimental: Experimental conditions are measured in 4–5 healthy donors. […] Gray background indicates range without inhibitors. See also Figure S7.

[3] = tested on: IκBα degradation in THP-1 cells; assay: Immunoblot of IκBα in L18-MDP-stimulated THP-1 cells; type: cell-based, human; conditions: 100 nM pre-treatment, 200 ng/ml L18-MDP
Experimental: (§1) Figure 5 Inhibition of NOD2-Dependent Ubiquitination and Signaling (A–C) THP-1 cells were pre-treated with kinase inhibitors or DMSO for 30 min and stimulated with 200 ng/ml L18-MDP (A, B) or TNF (C) as indicated. At the indicated time points, cells were lysed and ubiquitinated proteins were isolated using TUBE reagent. The isolated ubiquitinated proteins and input material were analyzed by immunoblotting. See also Figure S6.
(§2) The ubiquitin conjugates were purified using GST-Tandem Ubiquitin Binding Entities (TUBE; [Fiil et al., 2013]). In brief, treated THP-1 cells (6–10 × 10^6) were washed with PBS and lysed in 400 μl of ice-cold lysis buffer containing TUBE on ice for 30 min. Cleared lysates were incubated with Glutathione Sepharose 4B resin (Amersham) with agitation at 4°C overnight. The beads were washed four times with PBS-Tween (0.1%) and the bound proteins were released by heating the beads in reducing SDS sample buffer. The samples were resolved on pre-cast gradient gels (NuPage; Life Technologies) in MOPS running buffer and subjected to immunoblotting.

RIPK3 = RIPK3 (Homo sapiens, UniProt Q9Y572); set-up: method as in Najjar et al., 2015; conditions: ref Najjar et al., 2015; cited from earlier work
Chain of RIPK3 (Q9Y572 whole entry, species assumed): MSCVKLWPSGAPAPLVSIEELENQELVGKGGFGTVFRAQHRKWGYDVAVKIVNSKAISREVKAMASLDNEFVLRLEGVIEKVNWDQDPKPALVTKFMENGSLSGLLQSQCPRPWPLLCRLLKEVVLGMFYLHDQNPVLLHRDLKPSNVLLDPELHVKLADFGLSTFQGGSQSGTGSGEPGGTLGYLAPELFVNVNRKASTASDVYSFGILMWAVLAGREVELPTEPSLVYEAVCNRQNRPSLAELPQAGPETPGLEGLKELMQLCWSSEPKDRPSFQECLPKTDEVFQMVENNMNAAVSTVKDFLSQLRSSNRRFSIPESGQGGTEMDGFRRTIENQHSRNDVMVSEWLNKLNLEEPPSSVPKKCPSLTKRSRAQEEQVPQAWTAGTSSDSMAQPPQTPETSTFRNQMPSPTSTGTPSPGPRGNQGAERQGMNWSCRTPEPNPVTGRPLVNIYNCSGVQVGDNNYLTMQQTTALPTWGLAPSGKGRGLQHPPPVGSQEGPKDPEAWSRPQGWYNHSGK

[4] = tested on: RIPK1 ubiquitination and IκBα degradation in THP-1 cells; assay: TUBE purification and immunoblot, TNF-stimulated THP-1 cells; type: cell-based, human; conditions: TNF treatment
Experimental: as §1, §2

[5] = set-up: method as in Cortes et al., 2013; conditions: clinical use; ref Cortes et al., 2013; cited from earlier work
[6] = tested on: RAW264.7 macrophage cells; assay: Cell viability and morphology, 24 hours; conditions: 100 nM
[7] = tested on: RIPK2 ubiquitination in THP-1 cells; assay: TUBE purification of ubiquitin conjugates, L18-MDP-stimulated THP-1 cells; conditions: 200 ng/ml L18-MDP
[8] = tested on: TNF production by LPS stimulation in primary human monocytes; conditions: 200 ng/ml LPS
NOD2-RIPK2 interaction = NOD2-RIPK2 interaction (Homo sapiens, UniProt O43353); assay: HA-immunoprecipitation of RIPK2 with inducible HA-NOD2 in U2OS cells; conditions: 100 nM, 24 hr
Chain of NOD2-RIPK2 interaction (O43353 whole entry): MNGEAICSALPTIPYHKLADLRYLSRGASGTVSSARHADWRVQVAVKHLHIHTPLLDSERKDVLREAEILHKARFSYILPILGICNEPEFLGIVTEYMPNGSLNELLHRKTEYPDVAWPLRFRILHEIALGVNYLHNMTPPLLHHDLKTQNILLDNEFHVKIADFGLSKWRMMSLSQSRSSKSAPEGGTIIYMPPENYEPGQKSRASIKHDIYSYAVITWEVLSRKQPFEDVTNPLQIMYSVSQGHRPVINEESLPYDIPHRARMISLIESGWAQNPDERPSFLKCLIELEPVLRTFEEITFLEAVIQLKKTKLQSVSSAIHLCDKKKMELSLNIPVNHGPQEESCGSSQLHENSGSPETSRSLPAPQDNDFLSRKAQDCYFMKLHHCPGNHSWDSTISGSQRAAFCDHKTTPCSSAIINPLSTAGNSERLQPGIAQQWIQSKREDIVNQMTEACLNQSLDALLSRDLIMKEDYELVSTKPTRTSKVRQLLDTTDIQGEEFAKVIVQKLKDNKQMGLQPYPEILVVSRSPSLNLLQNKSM
Chain of NOD2-RIPK2 interaction (Q9HC29 whole entry partner): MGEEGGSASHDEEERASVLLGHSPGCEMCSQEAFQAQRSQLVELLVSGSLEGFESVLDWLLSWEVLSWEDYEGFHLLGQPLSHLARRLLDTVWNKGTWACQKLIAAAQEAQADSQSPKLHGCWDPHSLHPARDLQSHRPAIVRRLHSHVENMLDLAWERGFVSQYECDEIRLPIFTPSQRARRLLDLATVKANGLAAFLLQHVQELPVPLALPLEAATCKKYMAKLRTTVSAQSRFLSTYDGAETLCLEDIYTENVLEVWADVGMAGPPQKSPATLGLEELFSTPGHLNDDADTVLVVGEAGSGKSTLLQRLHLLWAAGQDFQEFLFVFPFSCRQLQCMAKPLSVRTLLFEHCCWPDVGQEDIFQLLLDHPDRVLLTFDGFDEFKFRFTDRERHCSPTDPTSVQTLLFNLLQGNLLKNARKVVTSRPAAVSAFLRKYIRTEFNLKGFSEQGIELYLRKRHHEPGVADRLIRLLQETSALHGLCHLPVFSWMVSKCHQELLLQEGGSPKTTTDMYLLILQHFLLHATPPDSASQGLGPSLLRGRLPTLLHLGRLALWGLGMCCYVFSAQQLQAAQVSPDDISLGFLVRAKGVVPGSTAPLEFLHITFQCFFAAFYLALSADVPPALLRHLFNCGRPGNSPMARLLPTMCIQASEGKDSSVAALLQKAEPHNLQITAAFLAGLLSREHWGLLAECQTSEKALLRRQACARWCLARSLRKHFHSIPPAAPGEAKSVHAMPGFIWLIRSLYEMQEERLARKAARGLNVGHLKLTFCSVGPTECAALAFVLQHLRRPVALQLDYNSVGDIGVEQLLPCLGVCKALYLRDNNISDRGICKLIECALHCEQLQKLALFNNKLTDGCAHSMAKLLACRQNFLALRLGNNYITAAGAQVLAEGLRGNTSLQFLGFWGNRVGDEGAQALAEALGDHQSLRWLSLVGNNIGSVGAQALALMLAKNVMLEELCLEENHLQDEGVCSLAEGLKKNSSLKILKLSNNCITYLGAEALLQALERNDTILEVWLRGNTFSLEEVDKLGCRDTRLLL

RIPK1 = target: T1, RIPK1 (Homo sapiens, UniProt Q13546); set-up: method as in Najjar et al., 2015; conditions: ref Najjar et al., 2015; cited from earlier work
T1 sequence (Q13546 1-671): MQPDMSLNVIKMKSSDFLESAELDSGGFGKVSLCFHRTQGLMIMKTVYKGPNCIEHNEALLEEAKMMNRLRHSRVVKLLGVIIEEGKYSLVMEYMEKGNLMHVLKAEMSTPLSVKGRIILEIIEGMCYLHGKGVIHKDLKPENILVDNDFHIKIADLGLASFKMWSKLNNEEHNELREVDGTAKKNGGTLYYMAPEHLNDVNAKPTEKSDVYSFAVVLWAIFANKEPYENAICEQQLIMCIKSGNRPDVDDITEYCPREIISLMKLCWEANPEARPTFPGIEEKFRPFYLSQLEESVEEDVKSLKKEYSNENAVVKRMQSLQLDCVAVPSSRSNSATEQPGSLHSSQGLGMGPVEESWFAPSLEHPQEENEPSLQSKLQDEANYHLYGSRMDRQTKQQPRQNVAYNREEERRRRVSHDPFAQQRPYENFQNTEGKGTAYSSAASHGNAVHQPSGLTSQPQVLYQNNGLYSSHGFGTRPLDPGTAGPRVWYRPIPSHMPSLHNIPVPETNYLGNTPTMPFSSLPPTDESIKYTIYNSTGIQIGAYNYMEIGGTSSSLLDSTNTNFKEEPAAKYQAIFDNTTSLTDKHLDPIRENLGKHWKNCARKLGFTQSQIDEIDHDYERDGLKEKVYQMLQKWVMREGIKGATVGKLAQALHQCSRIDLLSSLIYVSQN

Cc1ccc(C(=O)Nc2ccc(CN3CCN(C)CC3)c(C(F)(F)F)c2)cc1C#Cc1cnc2cccnn12 [ponatinib, 3-[2-(imidazo[1,2-b]pyridazin-3-yl)ethynyl]-4-methyl-N-{4-[(4-methylpiperazin-1-yl)methyl]-3-(trifluoromethyl)phenyl}benzamide]
EC50 [1]: 0.8 nM
concentration completely abrogating NOD2-dependent TNF production [2]: 10 nM
downstream degradation of IκBα [3]: blocked
inhibition of RIPK3 kinase activity in necroptosis (RIPK3): efficient inhibitor
ubiquitination of RIPK1 or IκBα degradation [4]: no obvious effects
adverse events [5]: serious adverse events including vascular thrombosis
morphology of RAW cells [6]: caused rounding of RAW cells
concentration completely blocking RIPK2 ubiquitination [7]: ≥ 25 nM
concentration reducing extent and length of ubiquitin-modified RIPK2 [7]: 5 to 10 nM
concentration attenuating TNF production by LPS stimulation [8]: 1 µM
NOD2-RIPK2 interaction (NOD2-RIPK2 interaction): stably maintained
inhibition of RIPK1 kinase activity in necroptosis (RIPK1): efficient inhibitor
